From paper PMC12748766, “Structural basis for human chondroitin sulfate chain polymerization” (Nature Communications, 2025)

Key:
Experiment in all cases: FACE gel glycosylation assay
Format in all cases: biochemical
CHSY3-CHPF complex = target: T1, CHSY3-CHPF complex (Homo sapiens, UniProt Q70JA7); conditions: acceptor TAMRA-labelled Penta-CSF1 glycopeptide, co-donor UDP-GalNAc; Mn2+ and Mg2+, pH 6.5, 30 C; N-terminal GT31 site of CHSY3
T1 construct: secreted luminal part of both chains (TM helix removed), HEK Freestyle 293-F; N-terminal RPTP sigma signal, SUMO, His6 cut with 3C; C-terminal Avi (CHSY3), 3C site and twin-Strep (CHPF); heterodimer, expected 165 kDa; with Chondroitin sulfate synthase 2
T1 sequence (Q70JA7 157-882): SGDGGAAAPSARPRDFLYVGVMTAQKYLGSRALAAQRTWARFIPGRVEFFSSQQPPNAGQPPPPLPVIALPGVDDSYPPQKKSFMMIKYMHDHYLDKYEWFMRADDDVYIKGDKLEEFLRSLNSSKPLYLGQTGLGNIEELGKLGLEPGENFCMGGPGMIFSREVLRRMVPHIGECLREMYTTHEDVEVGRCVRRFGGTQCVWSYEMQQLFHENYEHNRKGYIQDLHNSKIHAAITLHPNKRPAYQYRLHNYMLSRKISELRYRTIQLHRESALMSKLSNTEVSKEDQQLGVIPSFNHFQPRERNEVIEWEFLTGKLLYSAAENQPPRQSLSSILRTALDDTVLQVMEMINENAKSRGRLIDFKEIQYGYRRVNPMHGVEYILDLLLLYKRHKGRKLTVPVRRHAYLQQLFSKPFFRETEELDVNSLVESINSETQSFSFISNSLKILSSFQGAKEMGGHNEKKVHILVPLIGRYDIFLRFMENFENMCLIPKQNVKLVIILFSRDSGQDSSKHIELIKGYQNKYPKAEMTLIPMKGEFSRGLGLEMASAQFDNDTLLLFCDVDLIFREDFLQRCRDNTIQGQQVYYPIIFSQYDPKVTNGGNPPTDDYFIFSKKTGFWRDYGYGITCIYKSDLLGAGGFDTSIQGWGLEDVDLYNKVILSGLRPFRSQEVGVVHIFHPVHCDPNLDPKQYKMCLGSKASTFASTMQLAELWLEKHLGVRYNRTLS
T1 sequence (Q8IZ52 81-775 partner): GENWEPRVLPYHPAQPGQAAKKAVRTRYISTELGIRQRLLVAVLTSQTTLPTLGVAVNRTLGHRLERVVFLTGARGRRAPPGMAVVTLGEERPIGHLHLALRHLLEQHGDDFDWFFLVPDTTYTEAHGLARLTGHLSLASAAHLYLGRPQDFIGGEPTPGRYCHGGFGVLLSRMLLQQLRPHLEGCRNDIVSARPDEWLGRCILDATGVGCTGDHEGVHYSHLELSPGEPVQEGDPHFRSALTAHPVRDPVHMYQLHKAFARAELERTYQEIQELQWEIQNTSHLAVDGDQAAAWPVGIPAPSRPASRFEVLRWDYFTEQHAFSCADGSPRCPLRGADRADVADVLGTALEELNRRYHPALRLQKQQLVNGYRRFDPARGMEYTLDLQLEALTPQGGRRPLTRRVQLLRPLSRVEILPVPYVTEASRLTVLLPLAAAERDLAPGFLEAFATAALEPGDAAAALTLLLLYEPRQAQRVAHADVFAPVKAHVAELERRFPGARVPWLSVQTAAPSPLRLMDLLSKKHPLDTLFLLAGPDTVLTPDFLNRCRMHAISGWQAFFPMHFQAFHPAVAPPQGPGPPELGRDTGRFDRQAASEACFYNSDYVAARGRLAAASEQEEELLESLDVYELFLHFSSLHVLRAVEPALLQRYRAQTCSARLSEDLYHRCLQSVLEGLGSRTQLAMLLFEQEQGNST

CHSY3-CHPF2 complex = target: T2, CHSY3-CHPF2 complex (Homo sapiens, UniProt Q70JA7); conditions: acceptor TAMRA-labelled Penta-CSF1 glycopeptide, co-donor UDP-GalNAc; Mn2+ and Mg2+, pH 6.5, 30 C
T2 construct: secreted luminal part of both chains (TM helix removed), HEK Freestyle 293-F; N-terminal SUMO, His6 cut with 3C; C-terminal Avi (CHSY3), 3C site and twin-Strep (CHPF2); heterodimer, expected 167 kDa; with Chondroitin sulfate glucuronyltransferase
T2 sequence (Q70JA7 157-882): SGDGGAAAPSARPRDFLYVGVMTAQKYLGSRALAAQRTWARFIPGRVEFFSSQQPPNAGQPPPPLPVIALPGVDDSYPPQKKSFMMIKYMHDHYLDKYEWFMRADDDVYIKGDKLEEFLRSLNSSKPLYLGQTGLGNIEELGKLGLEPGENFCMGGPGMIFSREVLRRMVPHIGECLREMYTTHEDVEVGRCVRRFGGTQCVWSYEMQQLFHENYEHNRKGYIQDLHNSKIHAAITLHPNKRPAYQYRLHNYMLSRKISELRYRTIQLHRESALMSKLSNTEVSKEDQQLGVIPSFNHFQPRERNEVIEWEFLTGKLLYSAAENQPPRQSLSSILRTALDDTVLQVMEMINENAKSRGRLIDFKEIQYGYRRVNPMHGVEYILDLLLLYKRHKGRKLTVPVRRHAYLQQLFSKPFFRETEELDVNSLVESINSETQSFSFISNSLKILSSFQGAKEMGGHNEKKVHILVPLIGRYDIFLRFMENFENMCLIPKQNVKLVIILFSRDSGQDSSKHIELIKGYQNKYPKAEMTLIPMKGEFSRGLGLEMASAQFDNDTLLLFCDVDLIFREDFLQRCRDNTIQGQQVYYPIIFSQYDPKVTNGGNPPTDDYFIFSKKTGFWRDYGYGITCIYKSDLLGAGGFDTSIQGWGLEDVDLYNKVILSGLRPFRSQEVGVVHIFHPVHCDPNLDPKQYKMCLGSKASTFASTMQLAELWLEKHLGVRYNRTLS
T2 sequence (Q9P2E5 57-772 partner): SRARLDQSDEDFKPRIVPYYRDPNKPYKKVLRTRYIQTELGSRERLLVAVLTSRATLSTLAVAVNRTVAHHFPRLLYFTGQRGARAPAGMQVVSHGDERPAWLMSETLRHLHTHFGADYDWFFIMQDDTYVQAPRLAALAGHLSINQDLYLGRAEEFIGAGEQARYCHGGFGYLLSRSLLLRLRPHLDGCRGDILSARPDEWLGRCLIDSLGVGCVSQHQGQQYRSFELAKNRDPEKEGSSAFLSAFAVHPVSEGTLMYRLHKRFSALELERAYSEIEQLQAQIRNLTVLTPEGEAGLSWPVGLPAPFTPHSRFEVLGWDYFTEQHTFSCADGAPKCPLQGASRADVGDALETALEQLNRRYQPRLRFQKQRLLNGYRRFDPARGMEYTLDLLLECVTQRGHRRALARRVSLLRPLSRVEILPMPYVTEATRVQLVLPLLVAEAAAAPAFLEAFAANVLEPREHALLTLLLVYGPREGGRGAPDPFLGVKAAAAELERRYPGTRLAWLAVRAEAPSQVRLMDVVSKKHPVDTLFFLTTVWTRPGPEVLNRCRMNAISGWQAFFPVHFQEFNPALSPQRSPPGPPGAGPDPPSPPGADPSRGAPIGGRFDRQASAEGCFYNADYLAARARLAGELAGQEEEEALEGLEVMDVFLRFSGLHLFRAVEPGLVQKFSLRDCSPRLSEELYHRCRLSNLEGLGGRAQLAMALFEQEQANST

CHSY1-CHPF complex = target: T3, CHSY1-CHPF complex (Homo sapiens, UniProt Q86X52); conditions: acceptor TAMRA-labelled Penta-CSF1 glycopeptide, co-donor UDP-GalNAc; Mn2+ and Mg2+, pH 6.5, 30 C
T3 construct: secreted luminal part of both chains (TM helix removed), HEK Freestyle 293-F; N-terminal SUMO, His6 cut with 3C; C-terminal Avi (CHSY1), 3C site and twin-Strep (CHPF); heterodimer, expected 167 kDa; with Chondroitin sulfate synthase 2
T3 sequence (Q86X52 68-802): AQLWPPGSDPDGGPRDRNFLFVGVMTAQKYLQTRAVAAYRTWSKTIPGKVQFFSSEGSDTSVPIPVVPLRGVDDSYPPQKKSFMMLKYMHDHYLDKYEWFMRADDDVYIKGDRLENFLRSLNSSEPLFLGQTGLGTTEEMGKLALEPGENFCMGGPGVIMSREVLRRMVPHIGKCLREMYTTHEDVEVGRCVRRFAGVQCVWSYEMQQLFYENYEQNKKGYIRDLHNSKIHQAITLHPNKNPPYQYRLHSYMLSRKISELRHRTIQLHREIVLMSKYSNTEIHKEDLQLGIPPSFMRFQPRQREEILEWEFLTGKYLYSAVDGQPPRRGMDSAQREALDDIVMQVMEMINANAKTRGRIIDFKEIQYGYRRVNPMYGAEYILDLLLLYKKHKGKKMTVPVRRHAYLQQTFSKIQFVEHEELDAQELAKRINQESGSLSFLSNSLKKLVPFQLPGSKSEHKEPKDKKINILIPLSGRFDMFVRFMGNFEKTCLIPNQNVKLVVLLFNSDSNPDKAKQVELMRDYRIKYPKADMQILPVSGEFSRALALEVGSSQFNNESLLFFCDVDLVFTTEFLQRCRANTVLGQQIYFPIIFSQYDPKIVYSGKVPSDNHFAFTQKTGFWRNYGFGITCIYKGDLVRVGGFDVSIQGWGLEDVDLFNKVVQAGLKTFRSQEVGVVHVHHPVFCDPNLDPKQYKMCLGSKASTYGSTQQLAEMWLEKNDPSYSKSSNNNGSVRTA
T3 sequence (Q8IZ52 81-775 partner): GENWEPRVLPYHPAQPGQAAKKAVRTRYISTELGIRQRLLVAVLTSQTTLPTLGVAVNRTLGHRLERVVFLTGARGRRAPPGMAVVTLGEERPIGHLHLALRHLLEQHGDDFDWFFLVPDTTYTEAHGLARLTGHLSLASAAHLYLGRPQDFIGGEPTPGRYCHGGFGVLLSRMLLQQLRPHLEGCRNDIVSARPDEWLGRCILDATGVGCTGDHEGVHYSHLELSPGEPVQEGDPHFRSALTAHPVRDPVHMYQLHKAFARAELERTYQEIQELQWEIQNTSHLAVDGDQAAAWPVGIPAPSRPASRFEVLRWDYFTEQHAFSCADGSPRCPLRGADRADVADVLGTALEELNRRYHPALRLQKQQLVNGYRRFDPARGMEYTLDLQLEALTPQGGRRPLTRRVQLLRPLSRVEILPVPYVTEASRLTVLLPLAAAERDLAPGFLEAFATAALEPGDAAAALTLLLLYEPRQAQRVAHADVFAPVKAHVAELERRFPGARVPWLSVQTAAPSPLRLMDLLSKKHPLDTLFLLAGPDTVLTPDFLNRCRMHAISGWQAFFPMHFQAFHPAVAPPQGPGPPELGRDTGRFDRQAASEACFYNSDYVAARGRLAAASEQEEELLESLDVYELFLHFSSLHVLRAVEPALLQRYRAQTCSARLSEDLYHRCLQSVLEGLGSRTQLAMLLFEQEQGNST

CHSY1-CHPF2 complex = target: T4, CHSY1-CHPF2 complex (Homo sapiens, UniProt Q86X52); conditions: acceptor TAMRA-labelled Penta-CSF1 glycopeptide, co-donor UDP-GalNAc; Mn2+ and Mg2+, pH 6.5, 30 C
T4 construct: secreted luminal part of both chains (TM helix removed), HEK Freestyle 293-F; N-terminal SUMO, His6 cut with 3C; C-terminal Avi (CHSY1), 3C site and twin-Strep (CHPF2); heterodimer, expected 169 kDa; with Chondroitin sulfate glucuronyltransferase
T4 sequence (Q86X52 68-802): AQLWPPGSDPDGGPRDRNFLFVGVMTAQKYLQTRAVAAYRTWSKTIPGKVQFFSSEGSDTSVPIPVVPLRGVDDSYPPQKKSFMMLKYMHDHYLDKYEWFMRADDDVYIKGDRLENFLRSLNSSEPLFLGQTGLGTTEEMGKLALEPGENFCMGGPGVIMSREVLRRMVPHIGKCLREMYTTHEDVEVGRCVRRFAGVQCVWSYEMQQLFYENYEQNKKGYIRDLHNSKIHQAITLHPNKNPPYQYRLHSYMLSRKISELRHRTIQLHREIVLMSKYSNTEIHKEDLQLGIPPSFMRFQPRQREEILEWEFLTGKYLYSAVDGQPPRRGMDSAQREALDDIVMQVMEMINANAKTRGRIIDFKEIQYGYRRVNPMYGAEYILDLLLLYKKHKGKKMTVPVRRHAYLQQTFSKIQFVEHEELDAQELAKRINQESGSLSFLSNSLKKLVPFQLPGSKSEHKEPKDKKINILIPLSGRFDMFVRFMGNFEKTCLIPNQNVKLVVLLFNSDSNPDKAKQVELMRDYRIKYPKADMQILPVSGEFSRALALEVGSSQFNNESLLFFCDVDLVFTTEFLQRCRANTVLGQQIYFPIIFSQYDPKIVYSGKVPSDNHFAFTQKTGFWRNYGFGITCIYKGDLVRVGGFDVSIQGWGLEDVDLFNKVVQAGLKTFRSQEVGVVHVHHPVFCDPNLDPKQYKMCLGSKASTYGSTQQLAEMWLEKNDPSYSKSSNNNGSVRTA
T4 sequence (Q9P2E5 57-772 partner): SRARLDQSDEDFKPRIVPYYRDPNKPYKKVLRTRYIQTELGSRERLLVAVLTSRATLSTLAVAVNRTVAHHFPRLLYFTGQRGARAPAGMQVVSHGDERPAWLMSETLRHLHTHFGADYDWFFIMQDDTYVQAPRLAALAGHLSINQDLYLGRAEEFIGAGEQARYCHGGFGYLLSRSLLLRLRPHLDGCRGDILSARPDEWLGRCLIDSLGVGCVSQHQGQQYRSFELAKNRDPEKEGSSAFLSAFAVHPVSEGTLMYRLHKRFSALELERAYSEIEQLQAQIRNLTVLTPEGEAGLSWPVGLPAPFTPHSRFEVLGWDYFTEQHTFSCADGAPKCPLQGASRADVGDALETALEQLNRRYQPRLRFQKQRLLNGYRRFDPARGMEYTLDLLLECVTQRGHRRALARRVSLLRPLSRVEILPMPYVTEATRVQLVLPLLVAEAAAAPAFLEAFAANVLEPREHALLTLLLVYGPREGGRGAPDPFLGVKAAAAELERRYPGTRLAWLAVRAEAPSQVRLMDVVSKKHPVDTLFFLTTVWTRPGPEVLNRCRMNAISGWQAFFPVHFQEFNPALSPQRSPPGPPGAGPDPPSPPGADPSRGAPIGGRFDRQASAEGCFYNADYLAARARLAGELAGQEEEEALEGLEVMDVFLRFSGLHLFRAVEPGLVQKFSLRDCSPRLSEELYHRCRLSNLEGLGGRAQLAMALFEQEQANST

O=C(O)[C@H]1O[C@H](OP(=O)(O)OP(=O)(O)OC[C@H]2O[C@@H](n3ccc(=O)[nH]c3=O)[C@H](O)[C@@H]2O)[C@H](O)[C@@H](O)[C@@H]1O [UDP-GlcA]
FACE gel glycosylation assay (CHSY3-CHPF complex): wild-type CHSY3-CHPF complex efficiently elongated the Penta-CSF1 and Hexa-CSF1 substrates into high molecular weight chains | FACE gel glycosylation assay (CHSY3-CHPF2 complex): All four purified CS polymerase complexes were able to elongate the CS chain | FACE gel glycosylation assay (CHSY1-CHPF complex): All four purified CS polymerase complexes were able to elongate the CS chain | FACE gel glycosylation assay (CHSY1-CHPF2 complex): All four purified CS polymerase complexes were able to elongate the CS chain
